Measured values reported in US5399565A, “Pyrazolidinone CCK and gastrin antagonists and pharmaceutical formulations therof” (priority 1993, dated 1995).
Like-named read-outs stand apart in the source and are kept apart here.

How the values were obtained:
[1] = biological target: T1, brain CCK receptor (Mus musculus, UniProt P56481); assay: CCK receptor binding, mouse brain membranes (125I-CCK-8 sulfate)
T1 construct: from tissue; host or cells: forebrain membranes of male CF-1 mice
T1 sequence (P56481 1-453): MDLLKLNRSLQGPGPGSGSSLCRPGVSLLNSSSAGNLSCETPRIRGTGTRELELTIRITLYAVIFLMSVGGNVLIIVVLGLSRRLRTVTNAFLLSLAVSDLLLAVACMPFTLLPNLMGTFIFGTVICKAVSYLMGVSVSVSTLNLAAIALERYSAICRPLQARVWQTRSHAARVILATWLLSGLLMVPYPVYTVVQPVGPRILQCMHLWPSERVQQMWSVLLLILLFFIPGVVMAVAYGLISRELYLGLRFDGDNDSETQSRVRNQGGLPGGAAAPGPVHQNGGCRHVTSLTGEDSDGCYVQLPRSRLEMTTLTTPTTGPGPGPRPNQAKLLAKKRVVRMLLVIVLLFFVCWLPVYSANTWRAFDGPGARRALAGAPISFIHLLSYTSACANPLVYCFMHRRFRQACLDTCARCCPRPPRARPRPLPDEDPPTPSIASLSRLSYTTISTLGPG

[2] = biological target: T2, peripheral type CCK receptors in rat pancreas (Rattus norvegicus, UniProt P30551); assay: Binding to peripheral type CCK receptors in rat pancreas (3H-L-364,718); conditions: for IC50: rat pancreas; for inhibition at 10 µM: read-out: Pancreas Percent Inhibition
T2 construct: Pancreas was obtained from male Sprague-Dawley rats; from tissue; host or cells: pancreas membranes of male Sprague-Dawley rats
T2 sequence (P30551 1-444): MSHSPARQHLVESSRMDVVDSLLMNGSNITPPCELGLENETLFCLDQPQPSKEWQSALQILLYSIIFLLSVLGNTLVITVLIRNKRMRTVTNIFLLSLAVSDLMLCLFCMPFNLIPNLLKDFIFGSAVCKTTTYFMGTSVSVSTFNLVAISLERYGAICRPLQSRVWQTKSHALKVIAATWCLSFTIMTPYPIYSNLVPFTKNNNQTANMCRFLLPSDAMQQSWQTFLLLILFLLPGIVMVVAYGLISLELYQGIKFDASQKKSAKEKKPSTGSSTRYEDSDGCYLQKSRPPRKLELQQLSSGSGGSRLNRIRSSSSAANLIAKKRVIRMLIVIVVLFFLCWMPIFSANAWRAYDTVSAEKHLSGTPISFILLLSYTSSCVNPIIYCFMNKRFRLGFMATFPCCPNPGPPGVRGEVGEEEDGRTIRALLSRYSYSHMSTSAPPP
Summary of the method: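 Washed pancreatic membranes from male Sprague-Dawley rats (150-200 g) incubated 1 h at room temperature with 0.4-0.6 nM ³H-L-364,718 in 50 mM Tris pH 7.4, 5 mM MgCl2, bacitracin, 5 mM DTT. Bound radioactivity counted after filtration; nonspecific binding defined with 100 nM L-364,718; IC50 determined.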

[3] = biological target: T3, gastrin receptor (Cavia porcellus, UniProt H0VZC5); assay: Gastrin binding to guinea pig stomach mucosal membranes (125I-gastrin I)
T3 construct: Guinea pig stomach fundus was obtained from male Hartley guinea pigs; from tissue; host or cells: stomach fundus mucosal membranes of male Hartley guinea pigs
T3 sequence (H0VZC5 1-426): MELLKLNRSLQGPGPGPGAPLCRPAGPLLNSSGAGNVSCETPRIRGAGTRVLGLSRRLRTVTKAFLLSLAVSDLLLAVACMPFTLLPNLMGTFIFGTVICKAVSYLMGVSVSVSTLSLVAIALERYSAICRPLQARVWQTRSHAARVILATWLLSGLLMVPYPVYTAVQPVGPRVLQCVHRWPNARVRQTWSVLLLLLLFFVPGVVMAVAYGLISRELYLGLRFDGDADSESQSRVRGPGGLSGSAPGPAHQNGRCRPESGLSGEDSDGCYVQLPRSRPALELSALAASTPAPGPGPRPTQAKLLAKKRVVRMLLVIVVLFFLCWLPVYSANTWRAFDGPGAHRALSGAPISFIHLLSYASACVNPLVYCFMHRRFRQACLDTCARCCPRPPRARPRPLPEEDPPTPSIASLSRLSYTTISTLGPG
Protocol: The method used for gastrin binding to guinea pig stomach mucosal membranes was similar to that described by Takeuchi, Speir and Johnson (Am. J. Physiol. 237(3): E284-E294, 1979). Guinea pig stomach fundus was obtained from male Hartley guinea pigs, 300-350 g, and the mucosa was scraped off with a glass slide. The mucosa was homogenized in 50 mM Tris buffer, pH 7.4, containing 1 mM phenylmethanesulfonyl fluoride using a Dounce glass homogenizer, and the suspension was centrifuged at 40,000 g for 10 min. The resulting pellet was resuspended and centrifuged once more, the final pellet was then suspended in 100 ml assay buffer per 1 guinea pig stomach to give a protein concentration of 200-300 μg/200 μl. The assay buffer consisted of 50 mM Tris buffer, pH 7.4, 5 mM MgCl2, 0.14 mg/ml bacitracin, and 1 μg/ml each of leupeptin, chymostatin, aprotinin and pepstatin. Reagent volumes for the assay were the same as those used for CCK binding to brain membranes. The radioactive ligand was 20 pM ^125 I-gastrin I, from DuPont NEN (NEX-176). The samples were incubated 3 hours at room temperature and filtered and counted as described for CCK binding to brain membranes. Compound samples were prepared and IC-50 values were determined as described for the CCK-brain receptor binding. Non-specific binding was determined using 100 nM gastrin I (human synthetic from Sigma Chemical Co.).

[4] = mouse brain membranes, read-out: Brain IC50
[5] = guinea pig stomach mucosal membranes, read-out: Gastrin IC50
[6] = Brain IC50, mouse brain membranes

IC50 [1, 4]	IC50 [2]	IC50 [3, 5]	inhibition at 10 µM ([2]; at 10 μM)	Pancreas Percent Inhibition ([2]; at 10 μM)	SMILES	IC50 [1, 6]	IC50 [3]
22 nM	0.19 µM	150 nM			O=C1NN(C(=O)Nc2ccc(Cl)c(C(F)(F)F)c2)[C@@H](c2ccccc2)[C@@H]1c1ccccc1 (relative stereo) [Example 1, 1-[(4-Chloro-3-trifluoromethylphenyl)aminocarbonyl]-4,5-diphenyl-3-pyrazolidinone]		
44 nM		420 nM	62%		O=C1NN(C(=O)Nc2ccc(C(F)(F)F)cc2)[C@@H](c2ccccc2)[C@@H]1c1ccccc1 (relative stereo) [Example 16]		
31 nM	11.6 µM	490 nM			O=C1NN(C(=O)Nc2ccc(Br)cc2)[C@@H](c2ccccc2)[C@@H]1c1ccccc1 (relative stereo) [Example 20]		
25 nM		260 nM	47%		CC(C)c1ccc(NC(=O)N2NC(=O)[C@@H](c3ccccc3)[C@@H]2c2ccccc2)cc1 (relative stereo) [Example 29]		
31 nM		350 nM	49%		CC(C)(C)c1ccc(NC(=O)N2NC(=O)[C@@H](c3ccccc3)[C@@H]2c2ccccc2)cc1 (relative stereo) [Example 30]		
56 nM		240 nM	53%		CSc1ccc(NC(=O)N2NC(=O)[C@@H](c3ccccc3)[C@@H]2c2ccccc2)cc1 (relative stereo) [Example 38]		
42 nM	1.2 µM	210 nM			O=C1NN(C(=O)Nc2ccc(Cl)c(Cl)c2)[C@H](c2ccccc2)[C@H]1c1ccccc1 (relative stereo) [Example 46]		
43 nM		250 nM	40%		O=C1NN(C(=O)Nc2ccc3c(c2)CCC3)[C@H](c2ccccc2)[C@H]1c1ccccc1 (relative stereo) [Example 49]		
13 nM		81 nM	87%		O=C1NN(C(=O)Nc2ccc3c(c2)CCCC3)[C@H](c2ccccc2)[C@H]1c1ccccc1 (relative stereo) [Example 50]		
64 nM		160 nM	88%		O=C1NN(C(=O)Nc2cnc3ccccc3c2)[C@@H](c2ccccc2)[C@@H]1c1ccccc1 (relative stereo) [Example 92]		
290 nM		660 nM	75%		O=C1NN(C(=O)Nc2ccc3ncccc3c2)[C@@H](c2ccccc2)[C@@H]1c1ccccc1 (relative stereo) [Example 93]		
190 nM		870 nM	78%		O=C1NN(C(=O)NCCc2ccccc2Cl)[C@@H](c2ccccc2)[C@@H]1c1ccccc1 (relative stereo) [Example 106]		
31 nM		230 nM	80%		O=C1NN(C(=O)Nc2ccc(Br)cc2)[C@@H](c2cccc(Cl)c2Cl)[C@@H]1c1ccccc1 (relative stereo) [Example 116]		
400 nM		1000 nM	64%		O=C1NN(C(=O)Nc2ccc(Br)cc2)[C@@H](c2cccc(Cl)c2Cl)[C@H]1c1ccccc1 (relative stereo) [Example 117]		
360 nM		1500 nM	55%		O=C1NN(C(=O)Nc2ccc(Br)cc2)[C@@H](c2ccccc2Cl)[C@H]1c1ccccc1Cl (relative stereo) [Example 133A]		
6 nM	7.9 µM	25 nM			O=C1NN(C(=O)Nc2ccc(Br)cc2)[C@@H](c2ccccc2Cl)[C@@H]1c1ccccc1Cl (relative stereo) [Example 133]		

IC50 [1, 4]	IC50 [2]	IC50 [3, 5]	inhibition at 10 µM ([2]; at 10 μM)	Pancreas Percent Inhibition ([2]; at 10 μM)	SMILES	IC50 [1, 6]	IC50 [3]
7 nM		130 nM		47%	O=C1NN(C(=O)Nc2ccc(C(F)(F)F)cc2)C(c2ccccc2Cl)C1c1ccccc1 (centres unmarked) [Example 110]		
72 nM		1400 nM	42%		COc1cccc(C2C(c3ccccc3)C(=O)NN2C(=O)Nc2ccc(C(F)(F)F)cc2)c1 (centres unmarked) [Example 112]		
20 nM		360 nM	38%		O=C1NN(C(=O)Nc2ccc(Br)cc2)C(c2ccccc2Cl)C1c1ccccc1 (centres unmarked) [Example 114]		
150 nM		320 nM	53%		COc1ccccc1C1C(c2ccccc2)C(=O)NN1C(=O)Nc1ccc(Br)cc1 (centres unmarked) [Example 115]		
360 nM		5200 nM	41%		NC(=O)c1cccc(C2C(c3ccccc3)C(=O)NN2C(=O)Nc2ccc(Br)cc2)c1 (centres unmarked) [Example 118]		
16 nM		120 nM	87%		O=C1NN(C(=O)Nc2ccc(Cl)c(C(F)(F)F)c2)C(c2ccccc2Cl)C1c1ccccc1 (centres unmarked) [Example 120]		
14 nM		120 nM	26%		CC(C)c1ccc(NC(=O)N2NC(=O)C(c3ccccc3)C2c2ccccc2Cl)cc1 (centres unmarked) [Example 121]		
15 nM	8.6 µM	220 nM			O=C1NN(C(=O)Nc2ccc(Br)cc2)C(c2ccccc2)C1c1ccccc1Cl (centres unmarked) [Example 122]		
68 nM		690 nM	23%		COc1cccc(C2C(=O)NN(C(=O)Nc3ccc(Br)cc3)C2c2ccccc2)c1 (centres unmarked) [Example 123]		
150 nM		730 nM	36%		CC(C)Oc1cccc(C2C(=O)NN(C(=O)Nc3ccc(Br)cc3)C2c2ccccc2)c1 (centres unmarked) [Example 124]		
100 nM		590 nM	42%		O=C1NN(C(=O)Nc2ccc(Br)cc2)C(c2ccccc2)C1c1cccc([N+](=O)[O-])c1 (centres unmarked) [Example 125]		
11 nM		210 nM	59%		O=C1NN(C(=O)Nc2ccc(Br)cc2)C(c2ccccc2)C1c1cccc(Cl)c1 (centres unmarked) [Example 126]		
32 nM		210 nM	73%		O=C1NN(C(=O)Nc2ccc(Br)cc2)C(c2ccccc2)C1c1cccc(Br)c1 (centres unmarked) [Example 127]		
490 nM			39%		COc1ccc(C2C(=O)NN(C(=O)Nc3ccc(Br)cc3)C2c2ccccc2)cc1 (centres unmarked) [Example 128]		
160 nM		860 nM	69%		O=C1NN(C(=O)Nc2ccc(Br)cc2)C(c2ccccc2)C1c1ccc(Cl)cc1 (centres unmarked) [Example 129]		

SMILES	IC50 [1, 4]	IC50 [2]	IC50 [3, 5]	inhibition at 10 µM ([2]; at 10 μM)	Pancreas Percent Inhibition ([2]; at 10 μM)	IC50 [1, 6]	IC50 [3]
N#Cc1cccc(C2C(c3ccccc3)C(=O)NN2C(=O)Nc2ccc(C(F)(F)F)cc2)c1 (centres unmarked) [Example 111]				35%		20 nM	610 nM
O=C1NN(C(=O)Nc2ccc(C(F)(F)F)cc2)C(c2ccccc2)C1c1ccccc1Cl (centres unmarked) [Example 130]				42%		12 nM	100 nM
